{
  "source": "patent US10377717B2",
  "about": "“Farnesoid X receptor agonists and uses thereof” (Metacrine, Inc., priority 2015, dated 2019)",
  "target": "hFXR (Homo sapiens (Human), UniProt Q96RI1)",
  "sequence (Q96RI1 whole entry)": "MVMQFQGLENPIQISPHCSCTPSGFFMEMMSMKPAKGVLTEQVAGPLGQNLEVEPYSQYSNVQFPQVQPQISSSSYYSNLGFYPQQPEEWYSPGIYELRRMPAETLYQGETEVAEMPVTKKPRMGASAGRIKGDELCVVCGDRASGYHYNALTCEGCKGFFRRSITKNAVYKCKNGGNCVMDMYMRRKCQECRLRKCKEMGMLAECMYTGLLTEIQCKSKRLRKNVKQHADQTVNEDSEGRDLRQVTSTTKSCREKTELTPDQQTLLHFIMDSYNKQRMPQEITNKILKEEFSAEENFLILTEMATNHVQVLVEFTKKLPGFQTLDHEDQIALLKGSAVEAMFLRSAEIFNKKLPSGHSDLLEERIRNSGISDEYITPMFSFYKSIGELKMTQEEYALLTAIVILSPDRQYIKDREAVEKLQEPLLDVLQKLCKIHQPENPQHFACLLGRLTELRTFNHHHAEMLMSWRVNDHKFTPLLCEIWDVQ",
  "sequence (P19793 whole entry partner)": "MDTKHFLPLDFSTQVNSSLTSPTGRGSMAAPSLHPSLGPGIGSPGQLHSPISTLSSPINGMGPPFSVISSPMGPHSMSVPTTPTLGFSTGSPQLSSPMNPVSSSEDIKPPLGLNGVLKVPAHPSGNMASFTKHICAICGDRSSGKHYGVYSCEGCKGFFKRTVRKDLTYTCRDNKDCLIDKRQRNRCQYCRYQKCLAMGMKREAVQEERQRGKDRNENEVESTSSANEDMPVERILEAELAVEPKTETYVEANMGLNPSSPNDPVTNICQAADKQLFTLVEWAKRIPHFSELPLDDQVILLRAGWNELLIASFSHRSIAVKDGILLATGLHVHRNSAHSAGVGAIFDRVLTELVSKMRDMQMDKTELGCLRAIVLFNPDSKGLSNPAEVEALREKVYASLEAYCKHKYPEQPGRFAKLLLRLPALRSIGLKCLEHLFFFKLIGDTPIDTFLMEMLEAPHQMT",
  "assay": "In Vitro FXR Assay (TK), luciferase reporter in transfected CV-1 cells",
  "assay_type": "cell-based",
  "conditions": "TK-ECRE-luc reporter, hFXR/hRXR, 18 hrs, maximum efficacy <25% of Fexaramine control classified as '+'",
  "protocol": "CV-1 cells were seeded at a density of 2,000,000 cells in a T175 flask with DMEM+10% charcoal double-stripped FBS and incubated at 37° C. in 5% CO2 for 18 h (O/N).\nAfter 18 h of incubation, the medium in the T175 flask was changed with fresh DMEM+10% charcoal super-stripped serum. In a polypropylene tube, 2500 μL OptiMEM (Life Technologies, Cat #31985-062) was combined with expression plasmids for hFXR, hRXR, TK-ECRE-luc and pCMX-YFP. The tube was then briefly vortexed and incubated at room temperature for 5 minutes. Transfection reagent (X-tremeGENE HP from Roche, Cat #06 366 236 001) was added to the OptiMEM/plasmid mixture vortexed and incubated at room temperature for 20 minutes. Following incubation, the transfection reagent/DNA mixture complex was added to cells in the T175 flask and the cells were incubated at 37° C. in 5% CO2 for 18 h (O/N).\nCompounds were serially diluted in DMSO and added to transfected CV-1 cells. The cells were then incubated for 18 hrs. The next day cells were lysed and examined for luminescence.",
  "data": [
    {"smiles": "COCCc1ccc(-c2ccc(CN(C(=O)CC(C)(C)C)c3nccc4cc(C(=O)OC)ccc34)cc2)cc1", "note": "[Compound 62, Methyl 1-(N-((4′-(2-methoxyethyl)-[1,1′-biphenyl]-4-yl)methyl)-3,3-dimethylbutanamido)isoquinoline-6-carboxylate]", "values": [
      {"measurement": "EC50", "value": "≤ 1000", "unit": "nM"}
    ]},
    {"smiles": "COC(=O)c1ccc2c(N(Cc3ccc(-c4ccc5c(c4)CCN5)cc3)C(=O)CC(C)(C)C)nccc2c1", "note": "[Compound 63, Methyl 1-(N-(4-(indolin-5-yl)benzyl)-3,3-dimethylbutanamido)isoquinoline-6-carboxylate]", "values": [
      {"measurement": "EC50", "value": "≤ 1000", "unit": "nM"}
    ]},
    {"smiles": "COC(=O)c1ccc2c(N(Cc3ccc(-c4ccc5c(c4)CCN5C)cc3)C(=O)CC(C)(C)C)nccc2c1", "note": "[Compound 64, Methyl 1-(3,3-dimethyl-N-(4-(1-methylindolin-5-yl)benzyl)butanamido)isoquinoline-6-carboxylate]", "values": [
      {"measurement": "EC50", "value": "≤ 1000", "unit": "nM"}
    ]},
    {"smiles": "COC(=O)c1ccc2c(N(Cc3ccc(-c4ccc(OC)c(Cl)c4)cc3)C(=O)[C@H]3CC[C@H](O)CC3)nccc2c1", "note": "[Compound 66, Methyl 1-(trans-N-((3′-chloro-4′-methoxy-[1,1′-biphenyl]-4-yl)methyl)-4-hydroxycyclohexanecarboxamido) isoquinoline-6-carboxylate]", "values": [
      {"measurement": "EC50", "value": "≤ 1000", "unit": "nM"}
    ]},
    {"smiles": "COC(=O)c1ccc2c(N(Cc3ccc(-c4ccc(OC)c(C#N)c4)cc3)C(=O)[C@H]3CC[C@H](O)CC3)nccc2c1", "note": "[Compound 67, Methyl 1-(trans-N-((3′-cyano-4′-methoxy-[1,1′-biphenyl]-4-yl)methyl)-4-hydroxycyclohexanecarboxamido) isoquinoline-6-carboxylate]", "values": [
      {"measurement": "EC50", "value": "1000 to 10000", "unit": "nM"}
    ]},
    {"smiles": "COc1ccc(-c2ccc(CN(C(=O)CC(C)(C)C)c3nccc4cc(C(=O)OC(C)C)ccc34)cc2)cc1C#N", "note": "[Compound 68, Isopropyl 1-(N-((3′-cyano-4′-methoxy-[1,1′-biphenyl]-4-yl)methyl)-3,3-dimethylbutanamido) isoquinoline-6-carboxylate]", "values": [
      {"measurement": "EC50", "value": "≤ 1000", "unit": "nM"}
    ]},
    {"smiles": "COc1ccc(-c2ccc(CN(C(=O)CC(C)(C)C)c3nccc4cc(C(=O)OC(C)C)ccc34)cc2)cc1C", "note": "[Compound 69, Isopropyl 1-(N-((4′-methoxy-3′-methyl-[1,1′-biphenyl]-4-yl)methyl)-3,3-dimethylbutanamido)isoquinoline-6-carboxylate]", "values": [
      {"measurement": "EC50", "value": "≤ 1000", "unit": "nM"}
    ]},
    {"smiles": "COC(=O)c1ccc2c(N(Cc3ccc(-c4ccc(OC)c(C)c4)cc3)C(=O)CC(C)C)nccc2c1", "note": "[Compound 70, Methyl 1-(N-((4′-methoxy-3′-methyl-[1,1′-biphenyl]-4-yl)methyl)-3-methylbutanamido)isoquinoline-6-carboxylate]", "values": [
      {"measurement": "EC50", "value": "≤ 1000", "unit": "nM"}
    ]},
    {"smiles": "COC(=O)c1ccc2c(N(Cc3ccc(-c4ccc(OC)c(C)c4)cc3)C(=O)C3CCCC3)nccc2c1", "note": "[Compound 71, Methyl 1-(N-((4′-methoxy-3′-methyl-[1,1′-biphenyl]-4-yl)methyl)cyclopentanecarboxamido) isoquinoline-6-carboxylate]", "values": [
      {"measurement": "EC50", "value": "≤ 1000", "unit": "nM"}
    ]},
    {"smiles": "COC(=O)c1ccc2c(N(Cc3ccc(-c4ccc(OC)c(C)c4)cc3)C(=O)CC3CCCC3)nccc2c1", "note": "[Compound 72, Methyl 1-(2-cyclopentyl-N-((4′-methoxy-3′-methyl-[1,1′-biphenyl]-4-yl)methyl)acetamido)isoquinoline-6-carboxylate]", "values": [
      {"measurement": "EC50", "value": "≤ 1000", "unit": "nM"}
    ]},
    {"smiles": "COC(=O)c1ccc2c(N(Cc3ccc(-c4ccc(OC)c(C)c4)cc3)C(=O)c3ccccc3)nccc2c1", "note": "[Compound 73, Methyl 1-(N-((4′-methoxy-3′-methyl-[1,1′-biphenyl]-4-yl)methyl)benzamido)isoquinoline-6-carboxylate]", "values": [
      {"measurement": "EC50", "value": "≤ 1000", "unit": "nM"}
    ]},
    {"smiles": "COC(=O)c1ccc2c(N(Cc3ccc(-c4ccc(OC)c(C)c4)cc3)C(=O)CC3CCCCC3)nccc2c1", "note": "[Compound 74, Methyl 1-(2-cyclohexyl-N-((4′-methoxy-3′-methyl-[1,1′-biphenyl]-4-yl)methyl)acetamido)isoquinoline-6-carboxylate]", "values": [
      {"measurement": "EC50", "value": "1000 to 10000", "unit": "nM"}
    ]},
    {"smiles": "COC(=O)c1ccc2c(N(Cc3ccc(-c4ccc(OC)c(C)c4)cc3)C(=O)Cc3ccccc3)nccc2c1", "note": "[Compound 75, Methyl 1-(N-((4′-methoxy-3′-methyl-[1,1′-biphenyl]-4-yl)methyl)-2-phenylacetamido)isoquinoline-6-carboxylate]", "values": [
      {"measurement": "EC50", "value": "≥ 10000", "unit": "nM"}
    ]},
    {"smiles": "COC(=O)c1ccc2c(N(Cc3ccc(-c4ccc(OC)c(C)c4)cc3)C(=O)CCC(C)(C)C)nccc2c1", "note": "[Compound 76, Methyl 1-(N-((4′-methoxy-3′-methyl-[1,1′-biphenyl]-4-yl)methyl)-4,4-dimethylpentanamido)isoquinoline-6-carboxylate]", "values": [
      {"measurement": "EC50", "value": "≤ 1000", "unit": "nM"}
    ]},
    {"smiles": "COC(=O)c1ccc2c(N(Cc3ccc(-c4ccc(OC)c(C)c4)cc3)C(=O)CCc3ccccc3)nccc2c1", "note": "[Compound 77, Methyl 1-(N-((4′-methoxy-3′-methyl-[1,1′-biphenyl]-4-yl)methyl)-3-phenylpropanamido)isoquinoline-6-carboxylate]", "values": [
      {"measurement": "EC50", "value": "1000 to 10000", "unit": "nM"}
    ]},
    {"smiles": "COC(=O)c1ccc2c(N(Cc3ccc(-c4ccc(OC)c(C)c4)cc3)C(=O)CCCOCc3ccccc3)nccc2c1", "note": "[Compound 78, Methyl 1-(4-(benzyloxy)-N-((4′-methoxy-3′-methyl-[1,1′-biphenyl]-4-yl)methyl)butanamido)isoquinoline-6-carboxylate]", "values": [
      {"measurement": "EC50", "value": "≥ 10000", "unit": "nM"}
    ]},
    {"smiles": "COC(=O)c1ccc2c(N(Cc3ccc(-c4ccc(OC)c(C)c4)cc3)C(=O)CC3CCC3)nccc2c1", "note": "[Compound 79, Methyl 1-(2-cyclobutyl-N-((4′-methoxy-3′-methyl-[1,1′-biphenyl]-4-yl)methyl)acetamido)isoquinoline-6-carboxylate]", "values": [
      {"measurement": "EC50", "value": "≤ 1000", "unit": "nM"}
    ]},
    {"smiles": "COC(=O)c1ccc2c(N(Cc3ccc(-c4ccc(OC)c(C)c4)cc3)C(=O)CC3CC3)nccc2c1", "note": "[Compound 80, Methyl 1-(2-cyclopropyl-N-((4′-methoxy-3′-methyl-[1,1′-biphenyl]-4-yl)methyl)acetamido)isoquinoline-6-carboxylate]", "values": [
      {"measurement": "EC50", "value": "≤ 1000", "unit": "nM"}
    ]},
    {"smiles": "CCCCC(=O)N(Cc1ccc(-c2ccc(OC)c(C)c2)cc1)c1nccc2cc(C(=O)OC)ccc12", "note": "[Compound 81, Methyl 1-(N-((4′-methoxy-3′-methyl-[1,1′-biphenyl]-4-yl)methyl)pentanamido) isoquinoline-6-carboxylate]", "values": [
      {"measurement": "EC50", "value": "≤ 1000", "unit": "nM"}
    ]},
    {"smiles": "CCCC(=O)N(Cc1ccc(-c2ccc(OC)c(C)c2)cc1)c1nccc2cc(C(=O)OC)ccc12", "note": "[Compound 82, Methyl 1-(N-((4′-methoxy-3′-methyl-[1,1′-biphenyl]-4-yl)methyl)butyramido)isoquinoline-6-carboxylate]", "values": [
      {"measurement": "EC50", "value": "≤ 1000", "unit": "nM"}
    ]},
    {"smiles": "COC(=O)c1ccc2c(N(Cc3ccc(-c4ccc(OC)c(C)c4)cc3)C(=O)CC3COC3)nccc2c1", "note": "[Compound 83, Methyl 1-(N-((4′-methoxy-3′-methyl-[1,1′-biphenyl]-4-yl)methyl)-2-(oxetan-3-yl)acetamido)isoquinoline-6-carboxylate]", "values": [
      {"measurement": "EC50", "value": "1000 to 10000", "unit": "nM"}
    ]},
    {"smiles": "COC(=O)c1ccc2c(N(Cc3ccc(-c4ccc(OC)c(C)c4)cc3)C(=O)CCO)nccc2c1", "note": "[Compound 84, Methyl 1-(3-hydroxy-N-((4′-methoxy-3′-methyl-[1,1′-biphenyl]-4-yl)methyl)propanamido) isoquinoline-6-carboxylate]", "values": [
      {"measurement": "EC50", "value": "≥ 10000", "unit": "nM"}
    ]},
    {"smiles": "COC(=O)c1ccc2c(N(Cc3ccc(-c4ccc(OC)c(C)c4)cc3)C(=O)CCCO)nccc2c1", "note": "[Compound 85, Methyl 1-(4-hydroxy-N-((4′-methoxy-3′-methyl-[1,1′-biphenyl]-4-yl)methyl)butanamido) isoquinoline-6-carboxylate]", "values": [
      {"measurement": "EC50", "value": "≥ 10000", "unit": "nM"}
    ]},
    {"smiles": "COC(=O)c1ccc2c(N(Cc3ccc(-c4ccc(OC)c(C)c4)cc3)C(=O)CCCCO)nccc2c1", "note": "[Compound 86, Methyl 1-(5-hydroxy-N-((4′-methoxy-3′-methyl-[1,1-biphenyl]-4-yl)methyl)pentanamido) isoquinoline-6-carboxylate]", "values": [
      {"measurement": "EC50", "value": "≥ 10000", "unit": "nM"}
    ]},
    {"smiles": "COc1ccc([C@H]2CC[C@H](CN(C(=O)CC(C)(C)C)c3nccc4cc(C(=O)OC(C)C)ccc34)CC2)cc1C", "note": "[Compound 87, Isopropyl 1-(N-((trans-4-(4-methoxy-3-methylphenyl)cyclohexyl)methyl)-3,3-dimethylbutanamido)isoquinoline-6-carboxylate]", "values": [
      {"measurement": "EC50", "value": "≤ 1000", "unit": "nM"}
    ]},
    {"smiles": "CCC(C)(C)CC(=O)N(C[C@H]1CC[C@H](c2ccc(OC)c(C)c2)CC1)c1nccc2cc(C(=O)OC(C)C)ccc12", "note": "[Compound 88, Isopropyl 1-(N-((trans-4-(4-methoxy-3-methylphenyl)cyclohexyl)methyl)-3,3-dimethylpentanamido)isoquinoline-6-carboxylate]", "values": [
      {"measurement": "EC50", "value": "≤ 1000", "unit": "nM"}
    ]},
    {"smiles": "COC(=O)c1ccc2c(N(C[C@H]3CC[C@H](c4ccccc4C)CC3)C(=O)CC(C)(C)C)nccc2c1", "note": "[Compound 89, Methyl 1-(3,3-dimethyl-N-((trans-4-(o-tolyl)cyclohexyl)methyl)butanamido)isoquinoline-6-carboxylate]", "values": [
      {"measurement": "EC50", "value": "1000 to 10000", "unit": "nM"}
    ]},
    {"smiles": "COC(=O)c1ccc2c(N(C[C@H]3CC[C@H](c4cccc(C)c4)CC3)C(=O)CC(C)(C)C)nccc2c1", "note": "[Compound 90, Methyl 1-(3,3-dimethyl-N-((trans-4-(m-tolyl)cyclohexyl)methyl)butanamido)isoquinoline-6-carboxylate]", "values": [
      {"measurement": "EC50", "value": "≤ 1000", "unit": "nM"}
    ]},
    {"smiles": "COC(=O)c1ccc2c(N(C[C@H]3CC[C@H](c4ccccc4OC)CC3)C(=O)CC(C)(C)C)nccc2c1", "note": "[Compound 92, Methyl 1-(N-((trans-4-(2-methoxyphenyl)cyclohexyl)methyl)-3,3-dimethylbutanamido)isoquinoline-6-carboxylate]", "values": [
      {"measurement": "EC50", "value": "≥ 10000", "unit": "nM"}
    ]},
    {"smiles": "COC(=O)c1ccc2c(N(C[C@H]3CC[C@H](c4ccc(OC)cc4)CC3)C(=O)CC(C)(C)C)nccc2c1", "note": "[Compound 94, Methyl 1-(N-((trans-4-(4-methoxyphenyl)cyclohexyl)methyl)-3,3-dimethylbutanamido)isoquinoline-6-carboxylate]", "values": [
      {"measurement": "EC50", "value": "≤ 1000", "unit": "nM"}
    ]}
  ]
}
